In brackets after ≈: the same amount, converted by molar mass. Read-outs that look alike come from different tables or passages of the source.
Legend:
[1] = Solubility determination of MK2 inhibitors (kinetic aqueous solubility, UPLC); type: physicochemical; settings: aqueous buffer (system solution from pION inc.), 22 °C, pH 7.4, aqueous buffer, kinetic from dmso stock
Procedure: The solubility can be determined using the Automated Kinetic Aqueous Solubility (AKASol) method, which is an HPLC-UV based method. The method is derived from the classical saturated shake-flask solubility method which has been adapted to the 96-well microtitre plate format, allowing the use of DMSO stock solutions. The solubility is determined by measuring the amount of compound in a saturated aqueous solution, quantified by an external calibration curve of the compound dissolved in DMSO. The solubility (mg/L) is measured at pH 7.4, at room temperature and the final concentration of DMSO in the sample solution is 1%.
The samples were prepared from 10 mM DMSO stock solutions. For each compound under investigation, a volume (9 μL) of the DMSO stock solution is transferred from the DMSO stock solution into 891 μL of buffer solution (system solution from pION inc.) in a 96 deep well plate, which equates to approximately 1% DMSO, using the Packard Multiprobe II robot liquid handling system. The pH of the buffer is manually adjusted at pH 7.4 by adding NaOH. This procedure is done in duplicate for each sample. After shaking for 24 h on a vortex mixer (Heidolph, Titramax 101) at 450 rpm and at room temperature (21-23° C.), 300 uL of the incubated sample is transferred from the deep well plate to a filter plate (PVDF, 0.45 um) on a vacuum manifold. To the filtrate (150 uL) 1-propanol (50 uL) is added to suppress precipitation and this solution is then analysed by UPLC. The solubility is determined using the calibration line previously prepared.
Preparation of the Standards and Built up of a Calibration Line
The calibration line is built with different concentrations of the test compound (standards), prepared from the same 10 mM DMSO stock solution. A volume (7 uL) from the same DMSO stock solution was diluted with DMSO (273 uL) leading to a solution with concentration of 0.25 mM. From this solution, three different injection volumes (0.2, 1, 1.8 uL) were injected on UPLC. The respective peak areas are plotted against amount of compound to build up the calibration line. The calibration line is used to determine the amount of dissolved compound in each sample, selecting the injection that gave peak areas closest to the peak area range of the calibration standards.

MK2 enzyme = biological target: T1, MK2 enzyme (Homo sapiens, UniProt P49137); assay: MK2 enzyme activity, IMAP fluorescence polarization assay; type: biochemical
T1 construct: MK2 enzyme (active enzyme (peptide 46-end (Millipore))); purchased Millipore
Description: In another assay the MK2 kinase activity can be determined by using an IMAP assay (Immobilized Metal Assay for Phosphochemicals—based coupled assay). IMAP is a homogeneous fluorescence polarization (FP) assay based on affinity capture of phosphorylated peptide substrates. IMAP uses fluorescein-labeled peptide substrates that, upon phosphorylation by a protein kinase, bind to so called IMAP nanoparticles, which are derivatized with trivalent metal complexes. […] In such an assay, MK2 phosphorylates a fluorescein-labeled peptide substrate (see example 14).
MK2 enzyme activity is measured using the IMAP (immobilized metal ion affinity-based fluorescence polarization) assay as outlined below.
The enzyme is diluted to 100 U/mL the day before use in KR buffer (10 mM Tris-HCl, 10 mM MgCl2, 0.01% Tween-20, 0.05% NaN3, 2 mM DTT, pH 7.2) and stored overnight at −20° C.
The dilutions in DMSO are then diluted 50-fold in KR-buffer of which 5 μl is used in the assay, leading to a final compound concentration range in the assay from 10 μM to 0.316 nM.
After 60 min incubation at room temperature in the dark the FP signal is read. Fluorescence at 535 nm is measured using parallel and perpendicular filters to determine differences in rotation due to binding of the phosphorylated substrate peptide to the beads. Values are calculated as percentage of the difference in readout (ΔmPi) of the controls with and without ATP. EC50 values are determined by curve fitting of the experimental results using Activity Base.

[2] = pH 7.4, room temperature, about 1% DMSO, 24 h shaking, read-out: solubility
[3] = MK2 IMAP assay, 1 μM ATP, 30 min pre-incubation, 2 h room temperature, read-out: pEC50 value (converted)
[4] = Table 1, comparison compound of Formula (XV) without spiro ring, pH 7.4, read-out: Solubility pH 7.4 (mg/L), Formula (XV)
[5] = Table 1, comparison compound of Formula (XV) without spiro ring, MK2 IMAP assay, read-out: pEC50, Formula (XV) (converted)
[6] = Table 1, compound of Formula (I) with spiro ring, pH 7.4, read-out: Solubility pH 7.4 (mg/L), Formula (I)

T1 sequence (P49137 46-400 limits assumed): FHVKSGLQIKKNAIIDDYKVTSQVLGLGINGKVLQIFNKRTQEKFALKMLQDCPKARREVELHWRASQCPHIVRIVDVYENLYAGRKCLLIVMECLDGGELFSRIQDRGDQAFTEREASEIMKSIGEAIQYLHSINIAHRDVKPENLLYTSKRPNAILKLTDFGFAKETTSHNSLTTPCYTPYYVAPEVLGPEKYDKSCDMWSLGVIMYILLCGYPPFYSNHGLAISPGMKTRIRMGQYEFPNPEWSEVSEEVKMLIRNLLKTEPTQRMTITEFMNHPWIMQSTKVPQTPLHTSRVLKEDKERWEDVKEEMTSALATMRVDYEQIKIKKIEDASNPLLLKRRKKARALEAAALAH

SMILES | solubility at 24 h [1, 2] | EC50 (MK2 enzyme; [3]) | further results
O=C1NCC2(CCNCC2)c2[nH]c(-c3ccnc(-c4ccccc4F)n3)cc21 [1—4, 2′-(2-(2-fluorophenyl)pyrimidin-4-yl)-5′,6′-dihydrospiro[piperidine-4,7′-pyrrolo[3,2-c]pyridin]-4′(1′H)-one] | 20 to 50 mg/L (≈ 53 to 132 µM) | 3.16 to 31.6 nM | 
COc1cc(-c2nccc(-c3cc4c([nH]3)C3(CCNCC3)CNC4=O)n2)ccc1O [1—20, 2′-(2-(4-hydroxy-3-methoxyphenyl)pyrimidin-4-yl)-5′,6′-dihydrospiro[piperidine-4,7′-pyrrolo[3,2-c]pyridin]-4′(1′H)-one] | ≥ 50 mg/L | 31.6 to 316 nM | 
O=C1NCCc2[nH]c(-c3ccnc(-c4cccc(F)c4)n3)cc21 [16_3 Formula (XV)] |  |  | solubility at 24 h [1, 4]: 32 mg/L; EC50 (MK2 enzyme): 501 nM
O=C1NCC2(CCNCC2)c2[nH]c(-c3ccnc(-c4ccc(C5CCCCC5)cc4)n3)cc21 [1—18, 2′-(2-(4-cyclohexylphenyl)pyrimidin-4-yl)-5′,6′-dihydrospiro[piperidine-4,7′-pyrrolo[3,2-c]pyridin]-4′(1′H)-one] | 20 to 50 mg/L (≈ 45.3 to 113 µM) | 31.6 to 316 nM | 
O=C1NCCc2[nH]c(-c3ccnc(-c4cc5ccccc5o4)n3)cc21 [16_6 Formula (XV)] |  |  | solubility at 24 h [1, 4]: 2 mg/L; EC50 (MK2 enzyme; [5]): 50.1 nM
CC(C)COc1ccc(-c2nccc(-c3cc4c([nH]3)C3(CCNCC3)CNC4=O)n2)cc1 [1—27, 2′-(2-(4-isobutoxyphenyl)pyrimidin-4-yl)-5′,6′-dihydrospiro[piperidine-4,7′-pyrrolo[3,2-c]pyridin]-4′(1′H)-one] | ≥ 50 mg/L | 3.16 to 31.6 nM | 
O=C1NCC2(CCNCC2)c2[nH]c(-c3ccnc(-c4cnc5ccccc5c4)n3)cc21 [1—21, 2′-(2-(quinolin-3-yl)pyrimidin-4-yl)-5′,6′-dihydrospiro[piperidine-4,7′-pyrrolo[3,2-c]pyridin]-4′(1′H)-one] | 20 to 50 mg/L (≈ 48.7 to 122 µM) | 3.16 to 31.6 nM | 
O=C1NCC2(CCCNC2)c2[nH]c(-c3ccnc(-c4ccc5c(c4)OCO5)n3)cc21 (stereo not drawn) [5—2, 2′-(2-(benzo[d][1,3]dioxol-5-yl)pyrimidin-4-yl)-5′,6′-dihydrospiro[piperidine-3,7′-pyrrolo[3,2-c]pyridin]-4′(1′H)-one] | ≥ 50 mg/L | 3.16 to 31.6 nM | 
O=C1NCC2(CCNCC2)c2[nH]c(-c3ccnc(-c4cc5ccccc5o4)c3)cc21 [Example 8—1, 2′-(2-(benzofuran-2-yl)pyridin-4-yl)-5′,6′-dihydrospiro[piperidine-4,7′-pyrrolo[3,2-c]pyridin]-4′(1′H)-one] | ≥ 50 mg/L | 3.16 to 31.6 nM | 
CNC(=O)c1ccc(-c2ncc(F)c(-c3cc4c([nH]3)C3(CCNCC3)CNC4=O)n2)cc1 [4—4, 4-(5-fluoro-4-(4′-oxo-1′,4′,5′,6′-tetrahydrospiro[piperidine-4,7′-pyrrolo[3,2-c]pyridine]-2′-yl)pyrimidin-2-yl)-N-methylbenzamide] | 20 to 50 mg/L (≈ 46 to 115 µM) | 3.16 to 31.6 nM | 
O=C1NCC2(CCNCC2)c2[nH]c(-c3ccnc(-c4cnc5ccccc5c4)n3)cc21 [16_2 Formula (I)] |  |  | solubility at 24 h [1, 6]: 23 mg/L; pEC50, Formula (I) (MK2 enzyme; Table 1, compound of Formula (I) with spiro ring, MK2 IMAP assay): 8.2
O=C1NCC2(CCNC2)c2[nH]c(-c3ccnc(-c4cnc5ccccc5c4)n3)cc21 (stereo not drawn) [17_3 Formula (I)] |  |  | solubility at 24 h ([1]; Table 2, compound of Formula (I) with amine-containing spiro ring, pH 7.4, read-out: Solubility pH 7.4 (mg/L), Formula (I)): 37 mg/L; EC50 (MK2 enzyme; Table 2, compound of Formula (I) with amine-containing spiro ring, MK2 IMAP assay, read-out: pEC50, Formula (I) (converted)): 2.51 nM
O=C1NCC2(CCNCC2)c2[nH]c(-c3ccnc(-c4cccc(F)c4)n3)cc21 [16_3 Formula (I)] |  |  | solubility at 24 h [1, 6]: 36 mg/L; EC50 (MK2 enzyme; Table 1, compound of Formula (I) with spiro ring, MK2 IMAP assay, read-out: pEC50, Formula (I) (converted)): 7.94 nM
Cc1ccc(C(=O)Nc2cc(-c3cc4c([nH]3)C3(CCNCC3)CNC4=O)ccn2)cc1C [12—2, 3,4-dimethyl-N-(4-(4′-oxo-1′,4′,5′,6′-tetrahydrospiro[piperidine-4,7′-pyrrolo[3,2-c]pyridine]-2′-yl)pyridin-2-yl)benzamide] | ≥ 50 mg/L | ≤ 3.16 nM | 
O=C1NCC2(CCNCC2)c2[nH]c(-c3ccnc(-c4cc5ccccc5o4)n3)cc21 [Example 1—1, 2′(2-(benzofuran-2-yl)pyrimidin-4-yl)-5′,6′-dihydrospiro[piperidine-4,7′-pyrrolo[3,2-c]pyridin]-4′(1′H)-one] | 20 to 50 mg/L (≈ 50.1 to 125 µM) | 3.16 to 31.6 nM | 
O=C1NCC2(CCNCC2)c2[nH]c(-c3ccnc(-c4ccc(C(F)(F)F)c(Cl)c4)n3)cc21 [1—10, 2′-(2-(3-chloro-4-(trifluoromethyl)phenyl)pyrimidin-4-yl)-5′,6′-dihydrospiro[piperidine-4,7′-pyrrolo[3,2-c]pyridin]-4′(1′H)-one] | ≥ 50 mg/L | 3.16 to 31.6 nM | 
CC(=O)c1ccc(-c2nccc(-c3cc4c([nH]3)CCNC4=O)n2)cc1 [16_8 Formula (XV)] |  |  | solubility at 24 h [1, 4]: 3 mg/L; EC50 (MK2 enzyme; [5]): 126 nM
CC(=O)c1ccc(-c2nccc(-c3cc4c([nH]3)C3(CCNCC3)CNC4=O)n2)cc1 [1—6, 2′-(2-(4-acetylphenyl)pyrimidin-4-yl)-5′,6′-dihydrospiro[piperidine-4,7′-pyrrolo[3,2-c]pyridin]-4′(1′H)-one] | 20 to 50 mg/L (≈ 49.8 to 125 µM) | 3.16 to 31.6 nM | 
O=C1NCC2(CCNCC2)c2[nH]c(-c3nc(-c4cc5ccccc5o4)ncc3F)cc21 [Example 4—1, 2′-(2-(benzofuran-2-yl)-5-fluoropyrimidin-4-yl)-5′,6′-dihydrospiro[piperidine-4,7′-pyrrolo[3,2-c]pyridin]-4′(1′H)-one] | 20 to 50 mg/L (≈ 47.9 to 120 µM) | 3.16 to 31.6 nM | 
O=C1NCC2(CCNCC2)c2[nH]c(-c3ccnc(-c4nccs4)n3)cc21 [9—3, 2′-(2-(thiazol-2-yl)pyrimidin-4-yl)-5′,6′-dihydrospiro[piperidine-4,7′-pyrrolo[3,2-c]pyridin]-4′(1′H)-one] | ≥ 50 mg/L | 31.6 to 316 nM | 
O=C1NCC2(CCNCC2)c2[nH]c(-c3nc(-c4ccc5c(c4)OCO5)ncc3F)cc21 [4—2, 2′-(2-(benzo[d][1,3]dioxol-5-yl)-5-fluoropyrimidin-4-yl)-5′,6′-dihydrospiro[piperidine-4,7′-pyrrolo[3,2-c]pyridin]-4′(1′H)-one] | 20 to 50 mg/L (≈ 47.5 to 119 µM) | 3.16 to 31.6 nM | 
O=C1NCCc2[nH]c(-c3ccnc(-c4cc5ccccc5o4)c3)cc21 [16_7 Formula (XV)] |  |  | solubility at 24 h [1, 4]: 2 mg/L; EC50 (MK2 enzyme): 126 nM
O=C1NCC2(CCNCC2)c2[nH]c(-c3ccnc(-c4ccc5oc6ccccc6c5c4)n3)cc21 [1—26, 2′-(2-(dibenzo[b,d]furan-2-yl)pyrimidin-4-yl)-5′,6′-dihydrospiro[piperidine-4,7′-pyrrolo[3,2-c]pyridin]-4′(1′H)-one] | 20 to 50 mg/L (≈ 44.5 to 111 µM) | 31.6 to 316 nM | 
O=C1NCC2(CCNCC2)c2[nH]c(-c3ccnc(-c4ccc(-c5ccccc5)cc4)n3)cc21 [1—12, 2′-(2-(biphenyl-4-yl)pyrimidin-4-yl)-5′,6′-dihydrospiro[piperidine-4,7′-pyrrolo[3,2-c]pyridin]-4′(1′H)-one] | 20 to 50 mg/L (≈ 45.9 to 115 µM) | 3.16 to 31.6 nM | 

— patent publication US8772286B2, “MK2 inhibitors” (Merck Sharp & Dohme B.V., priority 2009, dated 2014)
